# Assay results as given in patent US20100285000A1, “USE OF VEGFR-2 INHIBITORS FOR TREATING METASTATIC CANCER” (BRISTOL-MYERS SQUIBB COMPANY, priority 2007, published 2010).
# What was measured:
# [1] = Bhuyan et al. Cancer Res. 42, 3532-3537 (1982); cited from earlier work
# [2] = tested on: MDA-MB-231 breast cancer cells; test: MDA-MB-231 orthotopic model of tumor metastasis (lung metastases after resection of the primary tumor); format: in vivo; conditions: human MDA-MB-231 cells in mouse mammary fat pad, tumors resected day 24, treatment from day 28, IP twice weekly; Comp-I 30 mg/kg, bevacizumab 5 mg/kg; control cohort 84%
# Description: MDA-MB-231 breast tumor cells implanted in mammary fat pad of mice and resultant tumors resected day 24. Drug treatment was initiated on day 28 and mice were sacrificed at 118 days and local regrowth and lung metastases evaluated.
# Human MDA-MB-231 breast cancer cells were implanted in the mouse mammary fat pads at day 0 (1×10^6 MDA-MB-231 breast cancer cells). The resultant tumors were resected at day 24 and treatment initiated 4 days later (Mean tumor volume at resection=400 mm^3). Treatment groups were as follows: Control: PBS, Comp-I: 30 mg/kg, and bevacizumab 5 mg/kg (100 μL IP injections twice weekly). When mice were sacrificed, the extent of local regrowth and numbers of lung metastases were evaluated.
compound,measurement,setting,value
COc1c(O)c2c(c3cc(C(=O)N4CCc5c4c(O)c(OC)c4[nH]c(C(=O)N6CC7CC78C6=CC(=O)c6[nH]cc(C)c68)cc54)[nH]c13)CCN2C(N)=O (centres unmarked) [CC-1065],"potency in vitro relative to commonly used anti-cancer drugs (doxorubicin, methotrexate, vincristine)",[1],about 1000 fold
bevacizumab,mice showing lung metastases (incidence of metastases),[2],74%
